Assay results reported in BigSolDB 2.1.

CC(C)(C)c1ccc(OP2OCC3(CO2)COP(Oc2ccc(C(C)(C)C)cc2C(C)(C)C)OC3)c(C(C)(C)C)c1 (stereo not drawn)
Settings	solubility (mole fraction)
in ethanol, 303.25 K	0.000185
in ethanol, 308.15 K	0.000249
in ethanol, 312.85 K	0.000324
in ethanol, 318.15 K	0.000365
in ethanol, 322.95 K	0.000426
in ethanol, 328.15 K	0.000534
in ethanol, 332.15 K	0.000669
in isopropanol, 304.15 K	0.000296
in isopropanol, 308.35 K	0.000371
in isopropanol, 313.15 K	0.000473
in isopropanol, 318.25 K	0.000657
in isopropanol, 323.15 K	0.000752
in isopropanol, 327.95 K	0.00113
in isopropanol, 333.35 K	0.00163
in methanol, 304.65 K	5.05e-05
in methanol, 308.25 K	5.84e-05
in methanol, 312.95 K	7.84e-05
in methanol, 318.15 K	0.000119
in methanol, 322.65 K	0.000154
in n-propanol, 303.15 K	0.000477
in n-propanol, 308.15 K	0.000582
in n-propanol, 313.05 K	0.000735
in n-propanol, 318.25 K	0.000925
in n-propanol, 322.75 K	0.00113
in n-propanol, 327.95 K	0.00146
in n-propanol, 333.15 K	0.00182
in tert-butanol, 302.95 K	0.000674
in tert-butanol, 308.05 K	0.000853
in tert-butanol, 313.15 K	0.0012
in tert-butanol, 318.45 K	0.00157
in tert-butanol, 323.05 K	0.00222
in tert-butanol, 328.45 K	0.00302
in tert-butanol, 332.95 K	0.00379
